Results published in US20210261636A1, “NEOANTIGENS EXPRESSED IN MULTIPLE MYELOMA AND THEIR USES” (Janssen Biotech, Inc., priority 2020, published 2021).

Experiments:
CD8+ T cells = assay: Exogenous autologous healthy donor restimulation assay, TNFα and IFNγ production by CD8+ T cells; assay type: cell-based, human; set-up: Frequency (TNFα+ IFNγ+ CD8 T cells): unit not given here; conditions: for Fold change (CD8+) vs. DMSO: maximum CD8+ T-cell response (TNFα and IFNγ); for Fold change (CD8+) vs. DMSO / Frequency (TNFα+ IFNγ+ CD8 T cells): donor independent, peptide pool 10 μg/mL, healthy donors; for Frequency (TNFα+ IFNγ+ CD8 T cells): maximum CD8+ T-cell response; for Immunogenic (yes/no): positive if CD8+ and/or CD4+ double positive TNFα/IFNγ frequency >=3-fold over DMSO and at least 0.01%
Protocol: (§1) Immunogenicity responses were measured by estimating TNFα IFNγ double positive cells in the CD4+ and/or CD8+ T-cell populations. A response is considered positive if TNFα IFNγ double positive fraction was greater than or equal to three-fold over unstimulated cells (DMSO negative control) with a minimum frequency >=0.01%. […]
(§2) Overlapping 15-mer peptides were designed to span each indicated neoantigen. Their ability to activate T cells was assessed using known methods, such as the assay defnied as exogenous autologous normal donor restimulation assay. The peptides were used as pools using TNFα and IFNγ production by CD8^+ and CD4^+ T cells as a readout. Maximum frequency of CD8^+TNFα^+IFNγ^+ and CD4^+TNFα^+IFNγ^+ T cells and maximum fold change over background for each pool of peptides were analyzed, which were calculated as the highest frequency of CD8^+ TNFα^+IFNγ^+ and CD4^+ TNFα^+IFNγ^+ T cells and resulting fold change across the normal donors evaluated for the peptide.
(§3) CD1c+Dendritic Cells (CD1c+DC) isolated from human healthy PBMCs were thawed using media (IMDM (Gibco) supplemented with glutamine, HEPES, 5% human serum (Sigma), and 1× Pen-Strep). DC cells were resuspended in media supplemented with IL-4 (Peprotech, 20 ng/mL) and GM-CSF (Gibco, 20 ng/mL), plated in 6 well microplates, and rested overnight at 37° C. and 5% CO2 incubator. The following day, DC cells were counted and plated in a 96 well round bottom microplate at a concentration of 30,000 viable cells per well. Lyophilized neoantigen peptide pools (15-mer peptides with 8-mer overlapping peptide sequences) were solubilized in 100% DMSO with a stock concentration of 20 mg/mL Neoantigen peptides pools were added to DCs for a final concentration of 10 μg/mL and rested for 2 hours at 37° C. and 5% CO2 incubator. CEF Peptide Pool “Plus” (Cellular Technologies, Ltd.) was utilized as a positive control (each viral peptide at a final concentration of 4 ug/ml) and DMSO at the same final concentration (0.05%) as the experimental peptides was utilized as a negative control. After 2 hours, DC cells were irradiated with 50 gray of ionizing radiation. Autologous CD3+ Pan-T cells isolated from human normal PBMCs were thawed using media. Following irradiation, autologous Pan-T cells were added to the irradiated DCs at 300,000 viable cells per well. Human IL-15 (Peprotech) was added to all wells at final concentration of 10 ng/ml. Plates were incubated at 37° C. and 5% CO2 incubator for a total of 12 days. Media was refreshed every 2-3 days with IL-15 (R&D System, 10 ng/mL final concentration) and IL-2 (R&D systems, 10 IU/mL final concentration).
(§4) On Day 11, cells were re-stimulated with identical experimental peptide pools or controls, at same concentration as peptide stimulation on Day 1. Protein Inhibitor Cocktail (eBioscience) was added to every well and plate was incubated overnight for 14-16 hours at 37° C. and 5% CO2 incubator. On Day 12, cells were stained for surface and intracellular flow cytometry analysis. The cells were washed with PBS and stained with Live/Dead Fixable Aqua Dead Cell stain (Thermo-Fisher). Following the live/dead stain, cells were blocked using Biotin-Free Fc Receptor Blocker (Accurate Chemical & Scientific Corp). Extracellular cellular flow panel (1 μL/antibody per well in 50 μL) consisted of CD3 PerCP-Cy5.5 (Biolegend), CD4 BV421 (Biolegend), and CD8 APC-Cy7 (Biolegend). After extracellular staining, cells were fixed and permeabilized using Foxp3/Transcription Factor Staining Buffer Set (eBioscience) and stained for intracellular proteins (1:50 dilution) using TNFα FITC (R&D Systems) and IFNγ BV785 (Biolegend). Cells were washed and resuspended in stain buffer, analyzed, and recorded in a BD Celesta flow cytometer.
(§5) Flow cytometry analysis was conducted on FlowJo v10.6 software. Cells were gated on live, singlet, CD3+, CD4+ and CD8+ T cells. The CD8+ and CD4+ T cells were analyzed for TNFα and IFNγ expression. […]

CD4+ T cells = assay: Exogenous autologous healthy donor restimulation assay, TNFα and IFNγ production by CD4+ T cells; assay type: cell-based, human; set-up: Frequency (TNFα+ IFNγ+ CD4 T cells): unit not given here; conditions: donor independent, peptide pool 10 μg/mL, healthy donors; for Fold change (CD4+) vs. DMSO: maximum CD4+ T-cell response (TNFα and IFNγ); for Frequency (TNFα+ IFNγ+ CD4 T cells): maximum CD4+ T-cell response
Protocol: as §1, §2, §3, §4, §5

“GEPGEDAGIGRPEEREREEEMADQ [AS135, alternative splicing, ZBP1]” was tested, and the “Fold change (CD8+) vs. DMSO” value (CD8+ T cells) was 2.68, the “Frequency (TNFα+ IFNγ+ CD8 T cells)” value (CD8+ T cells) was 0.092 and the “Immunogenic (yes/no)” value (CD8+ T cells) was “No”. For the same sequence, the “Fold change (CD4+) vs. DMSO” value (CD4+ T cells) was 3.73 and the “Frequency (TNFα+ IFNγ+ CD4 T cells)” value (CD4+ T cells) was 0.03.
“KLLYEVSQKMVL [AS50, alternative splicing, PDZRN4]” was tested, and the “Fold change (CD8+) vs. DMSO” value (CD8+ T cells) was 3.032, the “Frequency (TNFα+ IFNγ+ CD8 T cells)” value (CD8+ T cells) was 0.038 and the “Immunogenic (yes/no)” value (CD8+ T cells) was “Yes”. The “Fold change (CD4+) vs. DMSO” value (CD4+ T cells) was 8.29 and the “Frequency (TNFα+ IFNγ+ CD4 T cells)” value (CD4+ T cells) was 0.041.
In the case of “NAVRSYYEGTENIVAV [FUS18, gene fusion CADPS2-> RNF148]”, the “Fold change (CD8+) vs. DMSO” value (CD8+ T cells) is reported as 542.51, the “Frequency (TNFα+ IFNγ+ CD8 T cells)” value (CD8+ T cells) is reported as 0.671 and the “Immunogenic (yes/no)” value (CD8+ T cells) is reported as “Yes”. For the same sequence, the “Fold change (CD4+) vs. DMSO” value (CD4+ T cells) was 0.95 and the “Frequency (TNFα+ IFNγ+ CD4 T cells)” value (CD4+ T cells) was 0.005.
With “QIRVPSYSDEG [AS114, alternative splicing, CNTN5]” the “Fold change (CD8+) vs. DMSO” value (CD8+ T cells) was 7.6, the “Frequency (TNFα+ IFNγ+ CD8 T cells)” value (CD8+ T cells) was 0.14 and the “Immunogenic (yes/no)” value (CD8+ T cells) was “Yes”. For the same sequence, the “Fold change (CD4+) vs. DMSO” value (CD4+ T cells) was 2.05 and the “Frequency (TNFα+ IFNγ+ CD4 T cells)” value (CD4+ T cells) was 0.02.
With “TSTSPKFPVFIFRLVCWVRTELVLR [AS47, alternative splicing, NRG3]” the “Fold change (CD8+) vs. DMSO” value (CD8+ T cells) was 53.5, the “Frequency (TNFα+ IFNγ+ CD8 T cells)” value (CD8+ T cells) was 0.25 and the “Immunogenic (yes/no)” value (CD8+ T cells) was “Yes”. The “Fold change (CD4+) vs. DMSO” value (CD4+ T cells) was 1.907 and the “Frequency (TNFα+ IFNγ+ CD4 T cells)” value (CD4+ T cells) was 0.011.
“PQEEVPFRSITTELFPSMC [FUS27, gene fusion TBCEL-> TECTA]” was tested, and the “Fold change (CD8+) vs. DMSO” value (CD8+ T cells) was 3.38, the “Frequency (TNFα+ IFNγ+ CD8 T cells)” value (CD8+ T cells) was 0.009 and the “Immunogenic (yes/no)” value (CD8+ T cells) was “Yes”. The “Fold change (CD4+) vs. DMSO” value (CD4+ T cells) was 3.3 and the “Frequency (TNFα+ IFNγ+ CD4 T cells)” value (CD4+ T cells) was 0.038.
“LGRLEEAKSFETEEN [AS121, alternative splicing, OGT]” was tested, and the “Fold change (CD8+) vs. DMSO” value (CD8+ T cells) was 194.72, the “Frequency (TNFα+ IFNγ+ CD8 T cells)” value (CD8+ T cells) was 0.59 and the “Immunogenic (yes/no)” value (CD8+ T cells) was “Yes”. For the same sequence, the “Fold change (CD4+) vs. DMSO” value (CD4+ T cells) was 1.41 and the “Frequency (TNFα+ IFNγ+ CD4 T cells)” value (CD4+ T cells) was 0.02.
With “DVAVICSGRRSARDP [FUS4, gene fusion CD5L-> FCRL1]” the “Fold change (CD8+) vs. DMSO” value (CD8+ T cells) was 3.1, the “Frequency (TNFα+ IFNγ+ CD8 T cells)” value (CD8+ T cells) was 0.04 and the “Immunogenic (yes/no)” value (CD8+ T cells) was “No”. The “Fold change (CD4+) vs. DMSO” value (CD4+ T cells) was 7.13 and the “Frequency (TNFα+ IFNγ+ CD4 T cells)” value (CD4+ T cells) was 0.029.
In the case of “IIMALAILDLFAVLKIEAHKQLLLKSFCYGAGK [AS113, alternative splicing, CLCC1]”, the “Fold change (CD8+) vs. DMSO” value (CD8+ T cells) is reported as 5.07, the “Frequency (TNFα+ IFNγ+ CD8 T cells)” value (CD8+ T cells) is reported as 0.38 and the “Immunogenic (yes/no)” value (CD8+ T cells) is reported as “Yes”. For the same sequence, the “Fold change (CD4+) vs. DMSO” value (CD4+ T cells) was 5.7 and the “Frequency (TNFα+ IFNγ+ CD4 T cells)” value (CD4+ T cells) was 0.009.
“PPTAAASQTCLELER [FUS21, gene fusion FOSB-> KLF6]” was tested, and the “Fold change (CD8+) vs. DMSO” value (CD8+ T cells) was 4.24, the “Frequency (TNFα+ IFNγ+ CD8 T cells)” value (CD8+ T cells) was 0.04 and the “Immunogenic (yes/no)” value (CD8+ T cells) was “Yes”. The “Fold change (CD4+) vs. DMSO” value (CD4+ T cells) was 8.08 and the “Frequency (TNFα+ IFNγ+ CD4 T cells)” value (CD4+ T cells) was 0.023.
With “GNVLVRYVSLYVYYILLN [AS97, alternative splicing, ANKRD28]” the “Fold change (CD8+) vs. DMSO” value (CD8+ T cells) was 13446.33, the “Frequency (TNFα+ IFNγ+ CD8 T cells)” value (CD8+ T cells) was 23.8 and the “Immunogenic (yes/no)” value (CD8+ T cells) was “Yes”. For the same sequence, the “Fold change (CD4+) vs. DMSO” value (CD4+ T cells) was 96.12 and the “Frequency (TNFα+ IFNγ+ CD4 T cells)” value (CD4+ T cells) was 0.57.
With “WLLRTWERADSGL [AS123, alternative splicing, PCNX3]” the “Fold change (CD8+) vs. DMSO” value (CD8+ T cells) was 5.371, the “Frequency (TNFα+ IFNγ+ CD8 T cells)” value (CD8+ T cells) was 0.046 and the “Immunogenic (yes/no)” value (CD8+ T cells) was “No”. For the same sequence, the “Fold change (CD4+) vs. DMSO” value (CD4+ T cells) was 2.25 and the “Frequency (TNFα+ IFNγ+ CD4 T cells)” value (CD4+ T cells) was 0.05.
“DLNQDGYNGNLNQSVEVIYVSSPLHKGDHACFKVFSMVCVGAVIITDF [AS64, alternative splicing, ITGA8]” was tested, and the “Fold change (CD8+) vs. DMSO” value (CD8+ T cells) was 6.83, the “Frequency (TNFα+ IFNγ+ CD8 T cells)” value (CD8+ T cells) was 0.8 and the “Immunogenic (yes/no)” value (CD8+ T cells) was “Yes”. For the same sequence, the “Fold change (CD4+) vs. DMSO” value (CD4+ T cells) was 376.11 and the “Frequency (TNFα+ IFNγ+ CD4 T cells)” value (CD4+ T cells) was 0.57.
With “CKVCQNCKNPKMARAS [AS23, alternative splicing, KMT2C]” the “Fold change (CD8+) vs. DMSO” value (CD8+ T cells) was 3.05, the “Frequency (TNFα+ IFNγ+ CD8 T cells)” value (CD8+ T cells) was 0.065 and the “Immunogenic (yes/no)” value (CD8+ T cells) was “Yes”. The “Fold change (CD4+) vs. DMSO” value (CD4+ T cells) was 18 and the “Frequency (TNFα+ IFNγ+ CD4 T cells)” value (CD4+ T cells) was 0.063.
“PPTAAASQTMQIFVKT [FUS31, gene fusion FOSB-> UBC]” was tested, and the “Fold change (CD8+) vs. DMSO” value (CD8+ T cells) was 14.72, the “Frequency (TNFα+ IFNγ+ CD8 T cells)” value (CD8+ T cells) was 0.022 and the “Immunogenic (yes/no)” value (CD8+ T cells) was “Yes”. For the same sequence, the “Fold change (CD4+) vs. DMSO” value (CD4+ T cells) was 0.7 and the “Frequency (TNFα+ IFNγ+ CD4 T cells)” value (CD4+ T cells) was 0.004.
